Laboratory results from the NIST ThermoML archive (doi:10.1021/je060271a).

Conditions: 283.16 K, Liquid, Vibrating tube method

CCCC(=O)OCC(COC(=O)CCC)(COC(=O)CCC)COC(=O)CCC [pentaerythritol tetrabutyrate]
Conditions | mass density [kg/m3]
5025.9 kPa | 1062
5026.2 kPa | 1062.1
5026.4 kPa | 1061.9
5026.6 kPa | 1061.9
5037.7 kPa | 1062
5052.7 kPa | 1062
5084.5 kPa | 1061.9
5099.4 kPa | 1062.1
5117.2 kPa | 1062.1
5132.1 kPa | 1062.1
5146.8 kPa | 1062.1
5164.5 kPa | 1062.1
5180.2 kPa | 1062
5195.4 kPa | 1062.1
5213.6 kPa | 1062.2
5229.7 kPa | 1062.1
5245.8 kPa | 1062.1
5261.4 kPa | 1062.2
5277.3 kPa | 1062.1
5296.5 kPa | 1062.2
5312.6 kPa | 1062.2
5328.5 kPa | 1062.1
5347.8 kPa | 1062.1
5364.8 kPa | 1062.2
5381.7 kPa | 1062.1
5398.7 kPa | 1062.3
5419.8 kPa | 1062.2
5436.6 kPa | 1062.3
5450.9 kPa | 1062.3
5465.9 kPa | 1062.2
5510.3 kPa | 1062.3
5516.6 kPa | 1062.3
5521.7 kPa | 1062.3
5526.9 kPa | 1062.3
5532.8 kPa | 1062.3
5538.2 kPa | 1062.2
5543.2 kPa | 1062.3
5548.7 kPa | 1062.2
5553.9 kPa | 1062.3
5560.3 kPa | 1062.2
5565.4 kPa | 1062.2
5570.9 kPa | 1062.4
5577.1 kPa | 1062.3
5582.3 kPa | 1062.3
5587.5 kPa | 1062.3
5592.9 kPa | 1062.4
5599.3 kPa | 1062.2
5604.6 kPa | 1062.4
5610 kPa | 1062.4
5616.4 kPa | 1062.4
5621.6 kPa | 1062.3
5627.3 kPa | 1062.3
5632.6 kPa | 1062.3
5639.2 kPa | 1062.3
5644.4 kPa | 1062.3
5649.9 kPa | 1062.3
5655.3 kPa | 1062.3
5661.7 kPa | 1062.4
5667.2 kPa | 1062.2
5674 kPa | 1062.4
5679.3 kPa | 1062.4
5684.7 kPa | 1062.3
5690 kPa | 1062.3
5696.8 kPa | 1062.3
5702.1 kPa | 1062.4
5707.9 kPa | 1062.3
5713.6 kPa | 1062.5
5720.3 kPa | 1062.4
5725.5 kPa | 1062.5
5731.2 kPa | 1062.4
5736.6 kPa | 1062.5
5743.3 kPa | 1062.3
5749 kPa | 1062.4
